# In patent US20160367497A1, “METHODS AND COMPOSITIONS FOR TREATING NEUROPATHIES” (Washington University, priority 2007, published 2016):
# Key:
# Nrk2 = test: NAD synthesis enzyme mRNA in rotenone-treated DRG neurons (qRT-PCR); format: cell-based, rat; conditions: 0.1 μM and 1 μM, 24 hours
# Experimental: FIG. 6A-B illustrates expression analysis of NAD biosynthetic enzymes in mammal showing (A) NAD biosynthesis enzyme mRNA levels after 1, 3, 7, and 14 days after nerve transection in rat DRG were determined by qRT-PCR in which the expression level was normalized to glyceraldehydes-3-phosphate dehydrogenase expression in each sample and is indicated relative to the expression level in non-axotomized DRG; (B) neurite degeneration introduced by incubation DRG in 1 or 0.1 μM rotenone for indicated time and NAD synthesis enzyme mRNA levels were determined by qRT-PCR as described in the text.
# Real-time quantitative reverse transcription-PCR analysis. All the surgical procedures were performed according to National Institute of Health guidelines for care and use of laboratory animals at Washington University. […] Quantitative reverse transcription (RT)-PCR was performed by monitoring in real-time the increase in fluorescence of the SYBR-GREEN dye on a TaqMan 7700 Sequence Detection System (Applied Biosystems).
# To investigate the expression of mammalian NAD biosynthetic enzymes in the nervous system, we performed quantitative RT-PCR using RNA from mouse brain, retina, spinal code, and DRG at age of E14, P0, P7, P14 and P21. […] We also analyzed expression of NAD synthetic enzymes during the axonal degeneration caused by neurotoxin in cultured rat DRG neuron. […]
# AMPK = AMPK phosphorylation in Neuro2a cells (phospho-specific western blot); format: cell-based; conditions: resveratrol 10 μM or AICAR 1 mM; 2 h up to 72 h
# Experimental: (§1) FIG. 10A-D illustrates resveratrol activation of AMP kinase in Neuro2a cells. Neuro2a cells were switched to serum-starvation medium (medium containing 0.2% FCS) and treated with DMSO (vehicle control), resveratrol (10 μM) or 5-aminoimidazole-4-carboxamide-1-β-D-ribofuranoside (AICAR) (1 mM). […] Very low levels of phosphorylated AMPK and ACC were detected in DMSO treated control cells at all time points tested. (C) Densitometric analysis of changes in phosphorylated AMPK and (D) phosphorylated ACC under different conditions is shown.
# (§2) Cell culture and Reagents. Neuro2 cells obtained from ATCC were grown in MEM with 1.5 g/L sodium bicarbonate, 0.1 mM nonessential amino acids, 0.1 mM sodium pyruvate, 2 mM L-glutamine with 10% FCS. For differentiation, cells were switched to serum-starvation medium (containing 0.2% FCS). For neurite outgrowth measurements, experiments were done in quadruplicate and 100 neurites per well were randomly measured using the Metamorph software. Dorsal root ganglia sensory and cortical neurons were established from E13.5 mouse embryos, maintained in neurobasal medium supplemented with B27 (and NGF for DRG neurons) and infected with lentiviruses as described (Araki et al., 2004, Science 305:1010-1013; Hawley et al., 2005, Cell Metab 2:21-23). Resveratrol was a gift from Sirtris Pharmaceuticals (Cambridge Mass.) and AICAR was obtained from Toronto Research (North York, Canada). Splitomycin and Compound C were purchased from Biomol (Plymouth Meeting, Pa.) and Calbiochem (San Diego, Calif.). Sirtinol and nicotinamide were purchased from Sigma (Saint Louis, Mo.)
# Plasmids and viruses. The dominant negative (dnAMPK) and constitutively active (caAMPK) plasmids were gifts from Russell Jones (University of Pennsylvania, Philadelphia Pa.), and pCXN-Cre was a gift of Inder Verma (Salk Institute, San Diego, Calif.). All constructs were subcloned into the lentiviral shuttle vector FCIV and verified by nucleotide sequence analysis. Viruses were prepared as previously described (Araki et al., 2004, Science 305:1010-1013). Protein and mRNA analysis. Immunoprecipitations and western blot analysis were performed by standard methods using antibodies directed against total AMPK, phosphorylated AMPK, total ACC or phosphorylated ACC that were obtained from Cell Signaling Technology (Beverley, Mass.). The phospho-AMPK antibody detects endogenous AMPK α1 and α2 when phosphorylated at threonine 172. The LKB1 antibody was purchased from Upstate (Lake Placid, N.Y.). Quantitative RT-PCR analysis was performed using Sybr-Green methodology on a model 7700 instrument (Applied Biosystems) as previously described (Araki et al., 2004, Science 305:1010-1013). Primer sequences were those used in previous studies (Motoshima, et al., 2006, J Physiol 574:63-71).
# To explore the role of polyphenols, in particular, of resveratrol, we tested whether resveratrol altered the activity of AMPK in neuronal cells. Neuro2a neuroblastoma cells were treated with resveratrol (10 μM) and AMPK activation was examined using phospho-AMPK specific antibodies. […] To confirm that AMPK activation by resveratrol results in typical AMPK-mediated downstream responses, we monitored phosphorylation of ACC (acetyl Co-A carboxylase), a primary target of activated AMPK. […] To examine a potential mechanism of resveratrol-mediated AMPK activation, we measured cellular ATP levels as a decreased ATP:AMP ratio increases the phosphorylation of AMPK. ATP levels were monitored using a luciferase-based assay in neuro2A cells treated with resveratrol or Oligomycin, an inhibitor of mitochondrial oxidative phosphorylation and therefore ATP production. While the ATP concentration dropped from 5.874 μM in DMSO-treated cells (control) to 0.976 μM in Oligomycin treated cells within 2 hr, the ATP concentration in resveratrol-treated Neuro2a cells was not altered from control either at 2 hr (6.33 μM) or 24 hr (6.42 μM).
# [1] = test system: acetyl Co-A carboxylase (ACC); test: ACC phosphorylation in Neuro2a cells (phospho-specific western blot); format: cell-based; conditions: resveratrol 10 μM or AICAR 1 mM; all time points to 72 hr
# Experimental: as §1
# Plasmids and viruses. […] Quantitative RT-PCR analysis was performed using Sybr-Green methodology on a model 7700 instrument (Applied Biosystems) as previously described (Araki et al., 2004, Science 305:1010-1013). […]
# To explore the role of polyphenols, in particular, of resveratrol, we tested whether resveratrol altered the activity of AMPK in neuronal cells. […] To confirm that AMPK activation by resveratrol results in typical AMPK-mediated downstream responses, we monitored phosphorylation of ACC (acetyl Co-A carboxylase), a primary target of activated AMPK. […] To examine a potential mechanism of resveratrol-mediated AMPK activation, we measured cellular ATP levels as a decreased ATP:AMP ratio increases the phosphorylation of AMPK. […]
# neuro2A cells [2] = test: Neuro2a cell proliferation, Ki67 immunocytochemistry; format: cell-based; conditions: 0.2% fetal calf serum; AICAR 1 mM or resveratrol 10 μM; 24 h after plating; DMSO controls 50%
# Experimental: (§3) Neuro2a cells are a widely used as in vitro model of neuronal differentiation. These cells cease to proliferate and begin to differentiate, as evidenced by neurite outgrowth, in response to serum starvation, retinoic acid, or growth factors like neurotrophins and GDNF family ligands. […] Neuro2a cells grown under serum starvation conditions (0.2% fetal calf serum) were treated with AICAR (1 mM) or resveratrol (10 μM).
# neuro2A cells [3] = test: neurite outgrowth in Neuro2a cells; format: cell-based; conditions: 0.2% FCS; resveratrol 10 μM or AICAR 1 mM
# Experimental: FIG. 11A-D illustrates the resveratrol and AICAR stimulation of neurite outgrowth in Neuro2a cells. Neuro2a cells were switched to serum-starvation medium (medium containing 0.2% FCS) and treated with DMSO (vehicle control), resveratrol (10 μM) or AICAR (1 mM). (A) Serum deprivation of Neuro2a cells results in growth of short neurites that increase in length over 72 h. (B) Resveratrol induced rapid neurite outgrowth resulting in elaborate neurite network formation by 48 h. (C) AICAR stimulated extensive neurite outgrowth similar to that observed with resveratrol. (D).
# FIG. 12A-M illustrates the dependency of resveratrol-induced neurite outgrowth and mitochondrial biogenesis on AMPK. Neuro2a cells were infected with lentivirus expressing GFP only (FUGW, control), dominant negative AMPK (dnAMPK) or constitutively active AMPK (caAMPK). Three days later cells were shifted to serum-starvation medium containing DMSO (control) or resveratrol (10 μM). In addition, uninfected Neuro2a cells in serum-starvation medium were treated with resveratrol alone, the AMPK inhibitor Compound C (CC, Biomol International L.P. (Plymouth Meeting, Pa.)) (10 μM) alone or with resveratrol and CC together. Images of the cultures captured in bright field and green fluorescence were overlaid to visualize neurite outgrowth. […] Neurite length in cells treated with caAMPK+resveratrol is also shown (G). […] Values were normalized to the 18S transcript. Data shown is representative of two independent experiments.
# as §2, §3
# Since resveratrol activated AMPK and altered the differentiation of Neuro2a cells, we next asked whether AMPK activity was required for resveratrol-induced neurite outgrowth. To address this issue, we infected Neuro2a cells with lentivirus expressing either GFP alone (FUGW-control) or dominant negative AMPK (dnAMPK). After 3 days growth to allow robust lentiviral transgene expression, the medium was replaced with serum starvation medium. […] Resveratrol-induced neurite outgrowth was reduced in the presence of the AMPK pharmacological inhibitor Compound C (CC 10 μM) further supporting the importance of AMPK activity for resveratrol-induced neurite outgrowth.
# DRG neurons = test: axonal injury of DRG neurons after hypoxia and reoxygenation; format: cell-based; conditions: preincubation 45 min or lentiviral expression; 0.1% O2 8 or 16 hrs, 20 hrs reoxygenation
# Experimental: FIG. 18 illustrates that activation of AMPK protects axons while inhibition of AMPK function enhances axonal injury during oxygen deprivation.
# To examine whether AMPK activation prior to hypoxic stress protects axons from injury, either constitutively active AMPK (CaAMPK) was expressed in DRG neurons, or neurons were preincubated with the AMPK activator AICAR for 45 min prior to hypoxia. […] Thus, treatments that increase AMPK activity (e.g. resveratrol, AICAR) can block the axonal damage and are neuroprotective.
# neuro2A cells [4] = test: survival of Neuro2A cells in nutrient-deprived conditions; format: cell-based; conditions: regardless of the FCS concentration (10% or 0.2%)
# Experimental: When Neuro2A cells are grown in culture in presence of 10% FCS, cells proliferate and ultimately die if cells are not passaged. If grown in the presence of 0.2% FCS, neuro2A cells differentiate and project neurites but ultimately die within one week.
Structure (SMILES),increase in expression of Nrk2 (Nrk2),AMPK phosphorylation (AMPK),ACC phosphorylation [1],proliferating cells (Ki67) (neuro2A cells [2]) [%],neurite outgrowth compared to serum starvation alone (neuro2A cells [3]),axonal injury (axonal beading) after hypoxia (DRG neurons),cell survival (neuro2A cells [4])
C=C(C)[C@H]1Cc2c(ccc3c2O[C@@H]2COc4cc(OC)c(OC)cc4[C@@H]2C3=O)O1 [rotenone],more than 6 folds,,,,,,
"NC(=O)c1ncn([C@@H]2O[C@H](CO)[C@@H](O)[C@H]2O)c1N [AICAR, 5-aminoimidazole-4-carboxamide-1-β-D-ribofuranoside, reference compound]",,stimulated AMPK phosphorylation,promoted increased phosphorylation,12.8,increased neurite outgrowth,significantly reduced axonal injury after hypoxia,resistant to death for a prolonged period of time
